Measured values published in PubChem BioAssay (NCI).
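Dose response: 5 concentrations. Exposure: 48 h. Format: 96-well plates. Endpoint: linear interpolation; highest concentration if not reached. TGI: total growth inhibition.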 Where a SMILES comes first, the peptide text is derived from it. [ ]: non-standard residue; d: D form. The star is where a group is joined. ξ: configuration not given here. NMeY = CN[C@@H](Cc1ccc(O)cc1)C(=O)O; Cbz = O=C(OCc1ccccc1)*; ξA = CC(N)C(=O)O

Tests used:
Test in all cases: NCI anticancer screen, dose series, 48 h
[1] = system: U251 CNS
[2] = system: OVCAR-8 ovarian
[3] = system: HCC-2998 colon
[4] = system: A549 NSCLC
[5] = system: SNB-75 CNS
[6] = system: OVCAR-5 ovarian
[7] = system: HT29 colon
[8] = system: HCT-15 colon
[9] = system: MDA-MB-231 breast
[10] = system: SK-MEL-28 melanoma

Structure (SMILES)	TGI [1]	TGI [2]	TGI [3]	TGI [4]	TGI [5]	TGI [6]	TGI [7]	TGI [8]	TGI [9]	TGI [10]
COc1ccc(C[C@@H](C(=O)N[C@@H](C)C(N)=O)N(C)C(=O)[C@@H]2CCCN2C(=O)[C@H](CC(C)C)NC(=O)C(C)NC(=O)OCc2ccccc2)cc1 (stereo not given in full) (Cbz-[ξA]LP[NMeY](Me)A-NH2)	> 100 µM	> 100 µM	> 100 µM	> 100 µM	> 100 µM	> 100 µM	> 100 µM	> 100 µM	> 100 µM	> 100 µM
O=C1c2ccccc2C(=O)c2c1oc1cc(O)c(Cl)cc21	22.3 µM	23.4 µM	14.8 µM	9.46 µM	10.4 µM	23.9 µM	3.89 µM	17.8 µM	33.9 µM	7.62 µM
CN(C)c1n2c3ccc([N+](=O)[O-])cc3n3c(N(C)C)[n+]4ccccc4c3c2c2cccc[n+]12	> 100 µM	> 100 µM	> 100 µM	> 100 µM	> 100 µM	> 100 µM	> 100 µM	> 100 µM	> 100 µM	> 100 µM
CC(=Nc1ccc(Cl)cc1)c1ccncc1	> 100 µM	> 100 µM	> 100 µM	> 100 µM	> 100 µM	> 100 µM	> 100 µM	> 100 µM	> 100 µM	> 100 µM
COc1ccccc1/C=C1\CCC(Cc2ccccc2)(CN(C)C)C1=O (stereo not given)	45.5 µM	22.9 µM	24.3 µM	> 100 µM	> 88.9 µM	> 81.9 µM	5.55 µM	14.4 µM	46.7 µM	> 100 µM
N#Cc1c(-c2ccccc2)cn(C(=O)c2ccccc2)c1N	> 100 µM	> 100 µM	0.0659 µM	> 100 µM	> 100 µM	> 100 µM	> 100 µM	> 100 µM	> 100 µM	> 100 µM
Cc1ccc(NC(=O)c2cccc(OP(=O)(Nc3ccc(C)cc3)Nc3ccc(C)cc3)c2)cc1	> 100 µM	> 100 µM	> 100 µM	27.2 µM	30.6 µM	> 100 µM	14.9 µM	> 100 µM	16.1 µM	> 100 µM
CC1(C)N=C(C(N)=O)c2ncn(Cc3ccccc3)c2N1	> 100 µM	> 100 µM	> 100 µM	> 100 µM	> 100 µM	> 100 µM	> 100 µM	> 100 µM	> 100 µM	> 100 µM
COC(C)=NCCC1=CCCCC1	> 100 µM	> 100 µM	> 100 µM	> 100 µM	> 100 µM	> 100 µM	> 100 µM	> 100 µM	> 100 µM	> 100 µM
CC1(C)CC(=O)c2c(-c3ccc(Cl)cc3)c(C#N)c(=S)n(C3OC(CO)C(O)C(O)C3O)c2C1 (stereo not given)	> 100 µM	> 100 µM	> 100 µM	> 100 µM	98.4 µM	> 100 µM	> 100 µM	> 100 µM	> 100 µM	> 100 µM
O=C(Nc1ccccc1)OCCN=c1c2ccccc2ccc2ccccc12	69.9 µM	84 µM	25.1 µM	> 100 µM	80.9 µM	> 100 µM	38.8 µM	> 100 µM	> 100 µM	60.9 µM
C=C1N(C)c2ccc(S(=O)(=O)c3ccc4c(c3)C(C)(C)C(=C)N4C)cc2C1(C)C	> 100 µM	> 100 µM	> 100 µM	> 100 µM	62.7 µM	> 100 µM	> 100 µM	> 100 µM	> 100 µM	> 100 µM
CCOC(=O)N1c2ccccc2N(C(=O)OCC)C1CC(=O)/C=C/c1ccccc1	12.8 µM	8.63 µM	10.6 µM	18.1 µM	9.92 µM	7.78 µM	8.41 µM	12.9 µM	> 100 µM	28 µM
O=c1[nH][nH]c(=O)n1Cc1ccccc1	> 100 µM	> 100 µM	> 100 µM	> 100 µM	> 100 µM	> 100 µM	> 100 µM	> 100 µM	> 100 µM	> 100 µM
CC/C(Cl)=N\OC(=O)Nc1ccc(F)c(Cl)c1	33.9 µM	36.8 µM	35.3 µM	54.9 µM	26.2 µM	31.4 µM	55.2 µM	35.5 µM	41.5 µM	30.1 µM
O=c1ccn(C/C=C/c2ccccc2)c(=S)n1C/C=C/c1ccccc1	> 100 µM	> 100 µM	> 100 µM	> 100 µM	> 100 µM	> 100 µM	> 100 µM	> 100 µM	> 100 µM	> 100 µM
Cc1n[nH]c(=O)n1/N=C/c1ccco1	> 100 µM	> 100 µM	> 100 µM	> 100 µM	> 100 µM	> 100 µM	> 100 µM	> 100 µM	> 100 µM	> 100 µM
